US7622441B2, “Sustained release pharmaceutical compounds to prevent abuse of controlled substances” (Shire LLC, priority 2002, dated 2009)
Where “and” joins values, the source holds several entries; their conditions need not be identical. Equal values may be shown once. Where a name gives a salt, the structure may show the parent alone. Where no end group is shown, it is not given here.

What was measured:
[1] = Stability of narcotic conjugates in water (narcotic release, abuse resistance tests); format: physicochemical; conditions: for H2O (1 h, 90 C.) / H2O (24 h, RT): numbers based upon narcotic release; for % Release of Narcotic in Water: neutral pH
Text: It is also possible to further stabilize any unstable conjugates by tethering to a larger peptide. […] The conjugates are also stable at a wide range of pH's.

[2] = Pharmacokinetics of peptide-amphetamine conjugates by oral administration (serum amphetamine by ELISA); conditions: rat
[3] = Pharmacokinetics of narcotic conjugates by oral administration (serum hydrocodone/oxycodone by ELISA)
[4] = Serum naltrexone levels of rats orally dosed with BB301 polyserine-naltrexone conjugate vs. naltrexone (ELISA); conditions: rat; for Serum Concentrations of Individual Rats: equal dose (3.6 mg naltrexone)
[5] = in vivo; conditions: Sprague-Dawley, rat, po, 3.6 mg, Serum Concentrations of Individual Rats, oral capsule, dose equal to 3.6 mg naltrexone
[6] = rat, oral capsule; 2 hours was the first measurement
[7] = male, Sprague-Dawley, in vivo, po
[8] = rat serum, vs. equivalent dose of parent drug
[9] = oral solution in water, equivalent amount of amphetamine
[10] = Sprague-Dawley, in vivo, po, 1.8 mg, Mean Serum Concentrations +/− SD, oral capsule, ½ dose (1.8 mg) at 0 hours and at […]
[11] = Sprague-Dawley, in vivo, po, 3.6 mg
[12] = Sprague-Dawley, in vivo, po, 3.6 mg, Mean Serum Concentrations +/− SD, oral capsule, equal dose at time zero

## Ala-Pro-Hydrocodone [Ala-Pro-HC]
[1]
  H2O (1 h, 90 C.): 100
  H2O (24 h, RT): 100

## C[C@H](N)Cc1ccccc1 [Amphetamine, d-amphetamine sulfate, reference compound]
[2]; [7]
  AUC(0-t): 530 ng·h/mL
  Cmax: 193 ng/mL

## COc1ccc2c3c1O[C@H]1C(OC(=O)[C@@H](N)CC(C)C)=CC[C@H]4[C@@H](C2)N(C)CC[C@]314 [Leu-HC, Leu-Hydrocodone]
[1]
  H2O (1 h, 90 C.): 49
  H2O (24 h, RT): 10

## COc1ccc2c3c1OC1C(OC(=O)C(N)Cc4ccccc4)=CCC4C(C2)N(C)CCC314 (centres unmarked) [Phe-HC]
[1]
  H2O (1 h, 90 C.): 54

## COc1ccc2c3c1OC1C(OC(=O)C4CCCN4C(=O)C(C)NC(=O)OC(C)(C)C)=CCC4C(C2)N(C)CCC314 (stereo not drawn) [Boc-Ala-Pro-HC, Boc-Ala-Pro-Hydrocodone]
[3]; rat serum concentration curve vs. parent drug
  Shape of the Curve: ++Clearance
[3]; rat serum, multiple of parent drug's peak time
  Peak Time: 1X
[3]; [8]
  % AUC: 60%
  % Cmax: 97%

## CC(Cc1ccccc1)NC(=O)C(N)CO (centres unmarked) [Ser-Amp]
[2]; [9]
  AUC 0-12 h: 290 ng·h/mL
  Cmax: 146 +/− 85
[2]; oral, AUC relative to amphetamine
  Percent Amphetamine (AUC 0-12 h): 55%
[2]; oral, Cmax relative to amphetamine
  Percent Amphetamine (Cmax): 76%

## Glu5-HC: pentapeptide conjugate of hydrocodone (SEQ ID NO: 2) (EEEEE; also: hydrocodone conjugate)
[1]
  H2O (1 h, 90 C.): 53

## O=C1CC[C@@]2(O)[C@H]3Cc4ccc(O)c5c4[C@@]2(CCN3CC2CC2)[C@H]1O5 [Naltrexone]
[4]; [10]
  concentration at 0.5 h: 72 ng/mL
  concentration at 3 h: 13 ng/mL
  concentration at 5 h: 4 ng/mL
  concentration at 8 h: 68 ng/mL
[4]; Sprague-Dawley, in vivo, po, 1.8 mg, Mean Serum Concentrations +/− SD, oral capsule, ½ dose (1.8 mg) at 0 hours and at […], 11.5 hours
  concentration at 11.5 h: 11 ng/mL
[4]; Sprague-Dawley, in vivo, po, 1.8 mg, Mean Serum Concentrations +/− SD, oral capsule, ½ dose (1.8 mg) at 0 hours and at […], 24 hours
  concentration at 24 h: 6 ng/mL
[4]; [11]
  AUC(0-t): 477 ng·h/mL
  Cmax: 124 ng/mL
  Tmax: 45 min
[4]; [12]
  concentration at 0.5 h: 115 ng/mL
  concentration at 3 h: 55 ng/mL
  concentration at 5 h: 56 ng/mL
  concentration at 8 h: 7 ng/mL
[4]; Sprague-Dawley, in vivo, po, 3.6 mg, Mean Serum Concentrations +/− SD, oral capsule, equal dose at time zero, 12 hours
  concentration at 12 h: 2 ng/mL
[4]; Sprague-Dawley, in vivo, po, 3.6 mg, Mean Serum Concentrations +/− SD, oral capsule, equal dose at time zero, 15 hours
  concentration at 15 h: 2 ng/mL
[4]; Sprague-Dawley, in vivo, po, 3.6 mg, Mean Serum Concentrations +/− SD, oral capsule, equal dose at time zero, 24 hours
  concentration at 24 h: 2 ng/mL
[4]; oral capsule, equal dose
  time at which naltrexone serum levels spiked: 0.5 h
[4]; oral capsule, 12 hours
  Serum Concentrations of Individual Rats: 2 ng/mL
[4]; oral capsule, 15 hours
  Serum Concentrations of Individual Rats: 1 ng/mL and 2 ng/mL
[4]; oral capsule, 24 hours
  Serum Concentrations of Individual Rats: 1 ng/ml (2×) and 3 ng/ml and 2 ng/ml
[5]
  concentration at 12 h: 1 ng/mL
[6]
  time at which serum levels spiked: 2 h

## COc1ccc2c3c1O[C@H]1C(OC(=O)[C@@H]4CCCN4)=CC[C@H]4[C@@H](C2)N(C)CC[C@]314 [Pro-HC, 6-O-Pro-Hydrocodone]
[1]; 0 Hours
  % Release of Narcotic in Water: 4%
[1]; 1 Hour
  % Release of Narcotic in Water: 11%
[1]; 6 Hours
  % Release of Narcotic in Water: 25%
[1]; 24 Hours
  % Release of Narcotic in Water: 71%
[1]
  H2O (1 h, 90 C.): 97
  H2O (24 h, RT): 71
